Assay results from ChEMBL document CHEMBL2401680, “A highly catalytically active γ-carbonic anhydrase from the pathogenic anaerobe Porphyromonas gingivalis and its inhibition profile with anions and small molecules” (Bioorg Med Chem Lett, 2013).

How the values were obtained:
[1] = Inhibition of Porphyromonas gingivalis recombinant CA by CO2 hydration assay
Carbonic anhydrase = molecular target: T1, Carbonic anhydrase (Methanosarcina thermophila, UniProt P40881); assay: Inhibition of Methanosarcina thermophila recombinant gamma-CA by CO2 hydration assay
T1 sequence (P40881 whole entry): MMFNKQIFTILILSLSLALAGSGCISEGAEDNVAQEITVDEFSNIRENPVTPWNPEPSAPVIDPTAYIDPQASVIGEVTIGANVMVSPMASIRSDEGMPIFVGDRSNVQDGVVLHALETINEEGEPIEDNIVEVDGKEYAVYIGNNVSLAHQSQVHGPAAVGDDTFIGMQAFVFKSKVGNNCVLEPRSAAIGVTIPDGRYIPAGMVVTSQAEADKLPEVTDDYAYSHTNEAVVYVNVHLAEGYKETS

| SMILES | Ki [1] | Ki (Carbonic anhydrase) |
| --- | --- | --- |
| CCN(CC)C(=S)S [DITIOCARB SODIUM] | 4 µM |  |
| O=[As](O)(O)c1ccccc1 [PHENYLARSONIC ACID] | 90 µM |  |
| OB(O)c1ccccc1 [PHENYLBORONIC ACID] | 9.8 µM |  |
| [N-]=[N+]=[N-] [SODIUM AZIDE] | 73 µM |  |
| O=C([O-])O.[Na+] [SODIUM BICARBONATE] | 960 µM | 42 mM |
| O=S([O-])O.[Na+] [SODIUM BISULFITE] | 9300 µM | 11.7 mM |
| [Br-].[Na+] [SODIUM BROMIDE] | 920 µM | 60 mM |
| O=C([O-])[O-].[Na+].[Na+] [SODIUM CARBONATE] | 890 µM | 6.7 mM |
| S=C(S)S [SODIUM CARBONOTRITHIOATE] | 97 µM |  |
| [Cl-].[Na+] [SODIUM CHLORIDE] | 940 µM | > 200 mM |
| [F-].[Na+] [SODIUM FLUORIDE] | 950 µM |  |
| S [SODIUM HYDROSULFIDE] | 92 µM |  |
| O=S(=O)(O)ONOS(=O)(=O)O [SODIUM IMINODISULFATE] | 7700 µM |  |
| [I-].[Na+] [SODIUM IODIDE] | 8700 µM | 160 mM |
| N=C=[Se] [SODIUM ISOSELENOCYANATE] | 910 µM |  |
| N=C=S [SODIUM ISOTHIOCYANATE] | 93 µM | 7 mM |
| O=[N+]([O-])[O-].[Na+] [SODIUM NITRATE] | 8500 µM | 36.5 mM |
| O=NO [SODIUM NITRITE] | 3100 µM |  |
| [O-][Cl+3]([O-])([O-])O [SODIUM PERCHLORATE] | > 200000 µM |  |
| O=S(=O)(O)OOS(=O)(=O)O [SODIUM PERSULFATE] | 8700 µM |  |
| O=[Se](=O)(O)O [SODIUM SELENATE] | 85500 µM |  |
| O=S(=O)([O-])[O-].[Na+].[Na+] [SODIUM SULFATE ANHYDROUS] | 8700 µM | > 200 mM |
| O=[Te](=O)(O)O [SODIUM TELLURATE] | 16700 µM |  |
| O=BOB(O)OB(O)OB=O [SODIUM TETRABORATE] | 71600 µM |  |
| F[B-](F)(F)F.[Na+] [SODIUM TETRAFLUOROBORATE] | > 200000 µM |  |
| NS(=O)(=O)O [SULFAMATE] | 93 µM |  |
| NS(N)(=O)=O [SULFAMIDE] | 9.2 µM |  |
